In data set [1] the test system is Enterococcus faecalis. The data set can be described thus: Minimum Inhibitory Concentration against Enterococcus faecalis SR-7914 (VRE) was determined. Type of data set: functional.
Data set [2] deals with Staphylococcus aureus. In words: Minimum Inhibitory Concentration against Staphylococcus aureus SR-3637 (MRSA) was determined. Type of data set: functional.
Data set [3] concerns Enterococcus faecium. In words: Minimum Inhibitory Concentration against Enterococcus faecium SR-7917 (VRE) was determined. Type of data set: functional.
Data set [4] is described as follows: Solubility in water was determined. The class given is physicochemical.

≈ marks a conversion by molar mass, not a printed value.

Broadly, the MIC is the least concentration at which growth counts as inhibited. Higher therefore signals a need for much substance. Regarding `CN[C@H](CC(C)C)C(=O)N[C@H]1C(=O)N[C@@H](CC(N)=O)C(=O)N[C@H]2C(=O)NC3C(=O)NC(C(=O)N[C@@H](C(=O)O)c4cc(O)cc(O)c4-c4cc3ccc4O)[C@H](O[C@H]3C[C@](C)(NCc4ccc(C#Cc5ccc(Cl)cc5)cc4)[C@@H](O)[C@H](C)O3)c3ccc(c(Cl)c3)Oc3cc2cc(c3O[C@@H]2O[C@H](CO)[C@@H](O)[C@H](O)[C@H]2O)Oc2ccc(cc2Cl)[C@H]1O` (some centres not stated), the MIC in data set [1] is 12.5 µg/mL (≈ 7.47 µM); in data set [2], 0.2 µg/mL (≈ 0.119 µM); in data set [3], 6.25 µg/mL (≈ 3.73 µM).

Regarding `CN[C@H](CC(C)C)C(=O)N[C@H]1C(=O)N[C@@H](CC(N)=O)C(=O)N[C@H]2C(=O)NC3C(=O)NC(C(=O)N[C@@H](C(=O)O)c4cc(O)cc(O)c4-c4cc3ccc4O)[C@H](O[C@H]3C[C@](C)(NCc4ccc(-c5ccc(Cl)cc5)cc4)[C@@H](O)[C@H](C)O3)c3ccc(c(Cl)c3)Oc3cc2cc(c3O[C@@H]2O[C@H](CO)[C@@H](O)[C@H](O)[C@H]2O)Oc2ccc(cc2Cl)[C@H]1O` (some centres not stated), the minimum inhibitory concentration (MIC) in data set [1] is 12.5 µg/mL (≈ 7.58 µM); in data set [2], 0.1 µg/mL (≈ 0.0606 µM); in data set [3], 6.25 µg/mL (≈ 3.79 µM).

On to `CN[C@H](CC(C)C)C(=O)N[C@H]1C(=O)N[C@@H](CC(N)=O)C(=O)N[C@H]2C(=O)N[C@H]3C(=O)N[C@H](C(=O)N[C@H](C(=O)O)c4cc(O)cc(O)c4-c4cc3ccc4O)[C@H](O)c3ccc(c(Cl)c3)Oc3cc2cc(c3O[C@@H]2O[C@H](CO)[C@@H](O)[C@H](O)[C@H]2O[C@H]2C[C@](C)(N)[C@H](O)[C@H](C)O2)Oc2ccc(cc2Cl)[C@H]1O` [VANCOMYCIN], for which the MIC in data set [1] was over 100 µg/mL; in data set [2], 1.56 µg/mL (≈ 1.08 µM); in data set [3], over 100 µg/mL. Besides, in data set [4], the Solubility is over 10%.

Regarding `CCCCCCCCCCCCCN[C@@]1(C)C[C@H](O[C@@H]2c3ccc(c(Cl)c3)Oc3cc4cc(c3O[C@@H]3O[C@H](CO)[C@@H](O)[C@H](O)[C@H]3O)Oc3ccc(cc3Cl)[C@@H](O)[C@@H](NC(=O)[C@@H](CC(C)C)NC)C(=O)N[C@@H](CC(N)=O)C(=O)N[C@H]4C(=O)NC3C(=O)NC2C(=O)N[C@@H](C(=O)O)c2cc(O)cc(O)c2-c2cc3ccc2O)O[C@@H](C)[C@@H]1O` (some centres not stated), the MIC turned out to be 12.5 µg/mL (≈ 7.66 µM) in data set [1], 0.2 µg/mL (≈ 0.123 µM) in data set [2] and 6.25 µg/mL (≈ 3.83 µM) in data set [3].

In the case of `CN[C@H](CC(C)C)C(=O)N[C@H]1C(=O)N[C@@H](CC(N)=O)C(=O)N[C@H]2C(=O)NC3C(=O)NC(C(=O)N[C@@H](C(=O)O)c4cc(O)cc(O)c4-c4cc3ccc4O)[C@H](O[C@H]3C[C@](C)(N)[C@@H](O)[C@H](C)O3)c3ccc(c(Cl)c3)Oc3cc2cc(c3O[C@@H]2O[C@H](CO)[C@@H](O)[C@H](O)[C@H]2O)Oc2ccc(cc2Cl)[C@H]1O` (some centres not stated), the MIC in data set [1] was over 100 µg/mL; in data set [2] it was 0.78 µg/mL (≈ 0.538 µM); in data set [3] it was over 100 µg/mL. Also, the Solubility in data set [4] is over 10%.

For `CN[C@H](CC(C)C)C(=O)N[C@H]1C(=O)N[C@@H](CC(N)=O)C(=O)N[C@H]2C(=O)NC3C(=O)NC(C(=O)N[C@@H](C(=O)O)c4cc(O)cc(O)c4-c4cc3ccc4O)[C@H](O[C@H]3C[C@](C)(NCc4ccc(-c5ccc(-c6ccccc6)cc5)cc4)[C@@H](O)[C@H](C)O3)c3ccc(c(Cl)c3)Oc3cc2cc(c3O[C@@H]2O[C@H](CO)[C@@H](O)[C@H](O)[C@H]2O)Oc2ccc(cc2Cl)[C@H]1O` (some centres not stated), the values for the MIC in data set [1], in data set [2] and in data set [3] were 12.5 µg/mL (≈ 7.39 µM), 0.39 µg/mL (≈ 0.231 µM) and 3.13 µg/mL (≈ 1.85 µM), respectively.

With `CN[C@H](CC(C)C)C(=O)N[C@H]1C(=O)N[C@@H](CC(N)=O)C(=O)N[C@H]2C(=O)NC3C(=O)NC(C(=O)N[C@@H](C(=O)O)c4cc(O)cc(O)c4-c4cc3ccc4O)[C@H](O[C@H]3C[C@](C)(NCc4ccc(/C=C/c5ccc(Cl)cc5)cc4)[C@@H](O)[C@H](C)O3)c3ccc(c(Cl)c3)Oc3cc2cc(c3O[C@@H]2O[C@H](CO)[C@@H](O)[C@H](O)[C@H]2O)Oc2ccc(cc2Cl)[C@H]1O` (some centres not stated), the MIC was 6.25 µg/mL (≈ 3.73 µM) in data set [1], 0.2 µg/mL (≈ 0.119 µM) in data set [2] and 6.25 µg/mL (≈ 3.73 µM) in data set [3]. The Solubility in data set [4] was under 1%.

`CCCCCCCOc1ccc(CN[C@@]2(C)C[C@H](O[C@@H]3c4ccc(c(Cl)c4)Oc4cc5cc(c4O[C@@H]4O[C@H](CO)[C@@H](O)[C@H](O)[C@H]4O)Oc4ccc(cc4Cl)[C@@H](O)[C@@H](NC(=O)[C@@H](CC(C)C)NC)C(=O)N[C@@H](CC(N)=O)C(=O)N[C@H]5C(=O)NC4C(=O)NC3C(=O)N[C@@H](C(=O)O)c3cc(O)cc(O)c3-c3cc4ccc3O)O[C@@H](C)[C@@H]2O)cc1` (some centres not stated): the MIC came out at 25 µg/mL (≈ 15.1 µM) in data set [1], 0.39 µg/mL (≈ 0.236 µM) in data set [2] and 12.5 µg/mL (≈ 7.56 µM) in data set [3].

The values above are taken from ChEMBL document CHEMBL1134923, “Novel semi-synthetic glycopeptide antibiotics active against methicillin-resistant staphylococcus aureus (MRSA) and vancomycin-resistant Enterococci (VRE): doubly-modified water-soluble derivatives of chloroorienticin B” (Bioorg Med Chem Lett, 2002).
